Calls of active or inactive are those of the source.
Experiments:
[1] = target: T1, Replicative DNA helicase DnaB (Mycobacterium tuberculosis, UniProt P9WMR3); assay: DnaB intein splicing inhibitors, dose response, biochemical, cell-free fluorescence (AID 449749); assay type: functional
T1 sequence (P9WMR3 whole entry): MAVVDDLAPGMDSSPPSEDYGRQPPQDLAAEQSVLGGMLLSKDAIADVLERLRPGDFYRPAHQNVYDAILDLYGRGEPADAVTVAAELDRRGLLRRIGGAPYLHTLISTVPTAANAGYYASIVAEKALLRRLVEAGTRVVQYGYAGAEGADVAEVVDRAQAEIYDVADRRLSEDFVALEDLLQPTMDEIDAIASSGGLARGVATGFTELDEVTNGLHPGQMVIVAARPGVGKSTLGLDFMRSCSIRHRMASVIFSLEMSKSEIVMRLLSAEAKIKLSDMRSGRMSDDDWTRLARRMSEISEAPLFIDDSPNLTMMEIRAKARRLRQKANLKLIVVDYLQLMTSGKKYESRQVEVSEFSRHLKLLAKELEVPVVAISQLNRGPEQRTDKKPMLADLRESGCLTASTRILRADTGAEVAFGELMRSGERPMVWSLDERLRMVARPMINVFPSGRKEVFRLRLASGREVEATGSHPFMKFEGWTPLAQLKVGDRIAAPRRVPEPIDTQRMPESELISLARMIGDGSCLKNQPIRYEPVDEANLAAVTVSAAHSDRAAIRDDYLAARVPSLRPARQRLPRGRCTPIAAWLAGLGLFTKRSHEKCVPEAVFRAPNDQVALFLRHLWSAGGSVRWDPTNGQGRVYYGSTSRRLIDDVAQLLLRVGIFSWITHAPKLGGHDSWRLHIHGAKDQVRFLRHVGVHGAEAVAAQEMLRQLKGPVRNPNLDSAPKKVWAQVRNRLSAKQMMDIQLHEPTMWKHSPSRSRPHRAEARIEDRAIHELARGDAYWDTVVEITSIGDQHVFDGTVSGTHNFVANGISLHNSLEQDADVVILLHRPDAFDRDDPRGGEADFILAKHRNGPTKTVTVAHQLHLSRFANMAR

[2] = target: Serine/threonine-protein kinase PAK 1 (Homo sapiens, UniProt Q13153); assay type: functional
Serine/threonine-protein kinase PAK 1, sequence (Q13153 whole entry): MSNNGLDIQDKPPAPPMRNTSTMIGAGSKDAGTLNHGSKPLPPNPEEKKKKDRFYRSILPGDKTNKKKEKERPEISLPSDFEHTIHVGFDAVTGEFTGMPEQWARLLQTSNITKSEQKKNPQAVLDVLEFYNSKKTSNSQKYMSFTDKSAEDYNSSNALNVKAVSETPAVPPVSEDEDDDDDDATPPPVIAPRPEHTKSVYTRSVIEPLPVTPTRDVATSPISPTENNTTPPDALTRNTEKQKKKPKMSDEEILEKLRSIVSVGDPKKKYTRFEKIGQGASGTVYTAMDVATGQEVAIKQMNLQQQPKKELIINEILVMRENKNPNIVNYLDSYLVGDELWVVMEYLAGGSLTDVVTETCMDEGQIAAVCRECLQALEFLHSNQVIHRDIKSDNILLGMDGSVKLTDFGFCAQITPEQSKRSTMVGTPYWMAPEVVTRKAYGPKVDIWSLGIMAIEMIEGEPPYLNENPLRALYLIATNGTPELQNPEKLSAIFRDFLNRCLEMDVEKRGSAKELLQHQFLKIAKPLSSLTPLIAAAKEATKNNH

[3] = target: Dual specificity tyrosine-phosphorylation-regulated kinase 3 (Homo sapiens, UniProt O43781); assay type: functional;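 further: measured as one member of a broad kinase panel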
Dual specificity tyrosine-phosphorylation-regulated kinase 3, sequence (O43781 whole entry): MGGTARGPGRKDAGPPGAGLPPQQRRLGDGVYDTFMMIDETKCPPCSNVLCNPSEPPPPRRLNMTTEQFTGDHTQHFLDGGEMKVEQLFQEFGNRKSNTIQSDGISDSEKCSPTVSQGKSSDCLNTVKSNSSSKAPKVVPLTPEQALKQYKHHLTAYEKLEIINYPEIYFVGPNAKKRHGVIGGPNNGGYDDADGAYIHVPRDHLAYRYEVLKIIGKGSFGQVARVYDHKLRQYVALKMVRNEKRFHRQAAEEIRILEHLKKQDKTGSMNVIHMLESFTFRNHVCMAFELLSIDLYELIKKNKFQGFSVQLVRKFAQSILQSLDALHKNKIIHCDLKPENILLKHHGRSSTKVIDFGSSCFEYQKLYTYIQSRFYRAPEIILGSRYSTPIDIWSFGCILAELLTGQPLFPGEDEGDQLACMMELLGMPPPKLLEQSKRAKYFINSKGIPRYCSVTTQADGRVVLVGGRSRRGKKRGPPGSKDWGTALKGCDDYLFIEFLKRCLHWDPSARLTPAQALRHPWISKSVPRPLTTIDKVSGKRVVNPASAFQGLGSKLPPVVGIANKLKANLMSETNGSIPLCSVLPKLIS

[4] = target: Serine/threonine-protein kinase Nek4 (Homo sapiens, UniProt P51957); assay type: functional
Serine/threonine-protein kinase Nek4, sequence (P51957 whole entry): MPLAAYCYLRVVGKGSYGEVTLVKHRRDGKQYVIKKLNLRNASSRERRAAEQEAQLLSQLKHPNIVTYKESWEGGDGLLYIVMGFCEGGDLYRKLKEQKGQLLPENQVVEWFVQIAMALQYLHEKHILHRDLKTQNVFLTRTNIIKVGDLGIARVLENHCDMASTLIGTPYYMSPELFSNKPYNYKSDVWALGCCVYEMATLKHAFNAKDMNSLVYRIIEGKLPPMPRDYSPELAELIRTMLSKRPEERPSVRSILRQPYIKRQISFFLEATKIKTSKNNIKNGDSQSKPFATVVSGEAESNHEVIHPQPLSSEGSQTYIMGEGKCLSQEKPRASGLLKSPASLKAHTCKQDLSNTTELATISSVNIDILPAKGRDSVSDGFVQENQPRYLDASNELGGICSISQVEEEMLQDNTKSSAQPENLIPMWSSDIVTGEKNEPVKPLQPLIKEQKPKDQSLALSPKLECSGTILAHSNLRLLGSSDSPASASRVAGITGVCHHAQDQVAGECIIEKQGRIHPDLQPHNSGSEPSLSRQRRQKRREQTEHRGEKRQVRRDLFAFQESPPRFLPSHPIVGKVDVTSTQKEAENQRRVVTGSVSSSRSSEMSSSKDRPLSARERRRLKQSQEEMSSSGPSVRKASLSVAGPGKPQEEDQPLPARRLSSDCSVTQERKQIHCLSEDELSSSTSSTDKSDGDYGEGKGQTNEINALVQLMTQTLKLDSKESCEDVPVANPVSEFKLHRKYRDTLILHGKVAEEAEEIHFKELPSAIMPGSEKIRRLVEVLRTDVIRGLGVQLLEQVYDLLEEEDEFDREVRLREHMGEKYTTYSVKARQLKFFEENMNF

[5] = target: Lymphokine-activated killer T-cell-originated protein kinase (Homo sapiens, UniProt Q96KB5); assay type: functional;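 further: value comes from a kinase panel screen in which TOPK was one of the panel members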
Lymphokine-activated killer T-cell-originated protein kinase, sequence (Q96KB5 whole entry): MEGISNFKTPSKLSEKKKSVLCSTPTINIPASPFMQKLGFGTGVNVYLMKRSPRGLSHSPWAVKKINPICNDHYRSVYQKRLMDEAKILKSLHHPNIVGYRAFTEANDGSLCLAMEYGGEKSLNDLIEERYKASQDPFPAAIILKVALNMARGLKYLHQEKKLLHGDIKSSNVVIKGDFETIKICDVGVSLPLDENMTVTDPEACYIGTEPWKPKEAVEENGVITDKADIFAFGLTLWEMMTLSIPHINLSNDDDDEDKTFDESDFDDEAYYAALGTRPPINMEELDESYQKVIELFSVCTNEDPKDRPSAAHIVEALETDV

[6] = target: Serine/threonine-protein phosphatase (Candida dubliniensis (strain CD36 / CBS 7987 / NCPF 3949 / NRRLY-17841) (Yeast), UniProt B9W6M3); assay: calcineurin pathway inhibitors in yeast reporter, dose response, S. cerevisiae, CDRE-lacZ, luminescence, secondary (AID 2388); assay type: functional, cell-based;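 further: yeast reporter cells carrying a calcineurin-responsive lacZ construct stimulated with calcium chloride; luminescent beta-galactosidase reporter signal in whole cells rather than isolated phosphatase activity; potency for inhibition where a drop in reporter signal means calcineurin blockade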
Serine/threonine-protein phosphatase, sequence (B9W6M3 whole entry): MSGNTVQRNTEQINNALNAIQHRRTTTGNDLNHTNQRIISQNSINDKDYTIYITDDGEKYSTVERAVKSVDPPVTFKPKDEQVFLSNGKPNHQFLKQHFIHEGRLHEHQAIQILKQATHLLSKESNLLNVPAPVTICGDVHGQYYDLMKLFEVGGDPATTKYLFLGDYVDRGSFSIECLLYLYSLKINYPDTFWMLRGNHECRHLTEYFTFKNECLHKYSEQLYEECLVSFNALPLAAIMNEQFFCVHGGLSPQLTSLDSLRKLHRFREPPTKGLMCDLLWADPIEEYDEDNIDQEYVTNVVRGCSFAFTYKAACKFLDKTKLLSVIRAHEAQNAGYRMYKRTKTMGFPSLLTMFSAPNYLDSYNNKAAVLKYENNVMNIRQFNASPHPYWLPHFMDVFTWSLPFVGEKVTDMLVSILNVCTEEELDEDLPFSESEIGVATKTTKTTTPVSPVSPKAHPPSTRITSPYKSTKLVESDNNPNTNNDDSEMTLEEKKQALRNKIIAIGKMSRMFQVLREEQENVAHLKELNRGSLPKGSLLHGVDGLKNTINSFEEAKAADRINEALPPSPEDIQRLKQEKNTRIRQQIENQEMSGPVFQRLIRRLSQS

[7] = HepG2 cell cytotoxicity, dose response, cytotoxicity control for Shn3 inhibitor project, CellTiter-Glo, cherry-picked (AID 624134); assay type: functional, cell-based

**Q.** With `OCC[n+]1c2ccccc2nc2ccc(N3CCOCC3)cc21` as the compound, how does the AC50 [1] read?
**A.** Its AC50 is > 380 µM (inactive).

**Q.** With `CS(=O)(=O)N(Cc1ccc2[nH]c(=O)c3cccn3c2c1)C1CC1` as the compound, how does the Ki [2] read?
**A.** Its Ki is 3.16 µM (active).

**Q.** What about the Ki [3] of the same compound?
**A.** Its Ki is 0.158 µM (active).

**Q.** What about the Ki [4] of the same compound?
**A.** The Ki was 0.251 µM (active).

**Q.** And the Ki [5]?
**A.** The Ki was 2 µM (active).

**Q.** For `Cc1cc(NC(c2ccc(Cl)cc2)c2ccc3cccnc3c2O)no1` (configuration not stated), which EC50 [6] is on record?
**A.** The EC50 was > 180 µM (inactive).

**Q.** And the AC50 [7]?
**A.** The AC50 was 1.27 µM (active).

From ChEMBL document CHEMBL1201862, “PubChem BioAssay data set” (2004)
